Our source for the IC50 values is ChEMBL document CHEMBL1152035, “Rational design of potent carboxylic acid based bisubstrate inhibitors of ras farnesyl protein transferase” (Bioorg Med Chem Lett, 1994).

The assay deals with Protein farnesyltransferase (Homo sapiens, UniProt P49354+P49356). In words: Inhibition of ras Farnesyltransferase. In kind it is protein-complex assay.
Take `CC(C)=CCC/C(C)=C/CC/C(C)=C/CN[C@@H](CCC(=O)N[C@H](C(=O)N[C@@H](CC(C)C)C(=O)N[C@@H](CO)C(=O)O)C(C)C)C(=O)O`: 3.4 µM corresponded to half-maximal inhibition (IC50).
For `CC(C)=CCC/C(C)=C/CC/C(C)=C/CN[C@H](CCC(=O)N[C@H](C(=O)N[C@@H](CC(C)C)C(=O)N[C@@H](CO)C(=O)O)C(C)C)C(=O)O`, the IC50 (as a rule, the concentration that inhibits the measured activity by half) was 14 µM.
To `CC(C)=CCC/C(C)=C/CC/C(C)=C/CC(CCCC(=O)N[C@H](C(=O)N[C@@H](CC(C)C)C(=O)N[C@@H](CO)C(=O)O)C(C)C)C(=O)O` (some centres undefined) belongs 1.2 µM; to `CC(C)=CCC/C(C)=C/CC/C(C)=C/CC(CCCCC(=O)N[C@H](C(=O)N[C@@H](CC(C)C)C(=O)N[C@@H](CO)C(=O)O)C(C)C)C(=O)O` (some centres undefined), 1.8 µM; to `CC(C)=CCC/C(C)=C/CC/C(C)=C/CC(CCC(=O)N[C@H](C(=O)N[C@@H](CC(C)C)C(=O)N[C@@H](CO)C(=O)O)C(C)C)C(=O)NCP(=O)(O)O` (some centres undefined), 0.15 µM.
Then `CC(C)=CCC/C(C)=C/CC/C(C)=C/CC(CC(=O)N[C@H](C(=O)N[C@@H](CC(C)C)C(=O)N[C@@H](CO)C(=O)O)C(C)C)C(=O)O` (some centres undefined), with 4.5 µM; and `CC(C)=CCC/C(C)=C/CC/C(C)=C/CCCCC(=O)N[C@H](C(=O)N[C@@H](CC(C)C)C(=O)N[C@@H](CO)C(=O)O)C(C)C`, with over 360 µM.
Then `CC(C)=CCC/C(C)=C/CC/C(C)=C/CC(C[C@H](NC(=O)OC(C)(C)C)C(=O)N[C@H](C(=O)N[C@@H](CC(C)C)C(=O)N[C@@H](CO)C(=O)O)C(C)C)C(=O)O` (some centres undefined), with 20 µM.
Compound `CC(C)=CCC/C(C)=C/CC/C(C)=C/CC(CCC(=O)N[C@H](C(=O)N[C@@H](CC(C)C)C(=O)N[C@@H](CO)C(=O)O)C(C)C)C(=O)O` (some centres undefined) displayed an IC50 of 0.9 µM.
To `CCOC(=O)C(C/C=C(\C)CC/C=C(\C)CCC=C(C)C)CCC(=O)N[C@H](C(=O)N[C@@H](CC(C)C)C(=O)N[C@@H](CO)C(=O)O)C(C)C` (some centres undefined) belongs over 360 µM; to `CCCCCCCCCCCCC(CCC(=O)N[C@H](C(=O)N[C@@H](CC(C)C)C(=O)N[C@@H](CO)C(=O)O)C(C)C)C(=O)O` (some centres undefined), 10 µM; to `CC(C)=CCC/C(C)=C/CC/C(C)=C/CNC(=O)C(CCC(=O)N[C@H](C(=O)N[C@@H](CC(C)C)C(=O)N[C@@H](CO)C(=O)O)C(C)C)C(=O)O` (some centres undefined), 4.4 µM.
Then `CC(C)=CCC/C(C)=C/CC/C(C)=C/C(=O)N[C@@H](CCC(=O)N[C@H](C(=O)N[C@@H](CC(C)C)C(=O)N[C@@H](CO)C(=O)O)C(C)C)C(=O)O` (stereo in doubt; 28 (L)), with 0.033 µM.
Regarding `CC(C)=CCC/C(C)=C/CC/C(C)=C/C(=O)N[C@@H](CCC(=O)N[C@H](C(=O)N[C@@H](CC(C)C)C(=O)N[C@@H](CO)C(=O)O)C(C)C)C(=O)O` (stereo in doubt; 29 (D)), it took 3.4 µM to reach half-maximal inhibition (IC50).
